US8222282B2, “Sulfonate salts of 2-amino-3-carbethoxyamino-6-(4-fluoro-benzylamino)-pyridine” (Teva Pharmaceuticals USA, Inc., priority 2008, dated 2012)

Assays:
Type in all cases: physicochemical
[1] = Bulk density of flupirtine salts; settings: volume per 100.0 g of sample material
Experimental: The bulk density was determined as follows: Without increasing its density, sample material (about 4 grams) was introduced into a 10 ml measuring cylinder (±0.2 ml). The volume and the exact weight of the introduced sample material were determined. The bulk density was calculated as volume per 100.0 g of sample material.

[2] = Oxidative stability: HPLC of flupirtine salts after storage at room temperature under open air; settings: for decrease of area under the peak of the flupirtine signal: 0 to 14 days, room temperature, open air; for Flupirtine signal after 14 days (area under the peak in, %): HPLC after 14 days of storage at room temperature under open air; for Flupirtine signal after 0 days (area under the peak in, %): HPLC after isolation and drying
Experimental: HPLC Method [table] HPLC analysis was performed after isolation and drying of flupirtine maleate form A and flupirtine sulfonate salts and repeated after 14 days of storage at room temperature under open air.

[3] = Solubility in demineralised water (photometric); settings: 60 min stirring at 20° C.; for solubility thermodynamic at 60 min: demineralised water
Experimental: […] Subsequently, an aliquot of the solution was centrifuged at 10,000 rpm and the flupirtine absorption was photometrically determined in the supernatant. The amount of flupirtine in solution was calculated with a response factor (absorption/mg substance).

[4] = Oxidative stability: HPLC of flupirtine salts after storage at room temperature under open air; settings: exposed to air, 30 days at room temperature; in contrast to maleate, gluconate or inorganic salts
[5] = Discolouration measurements, optical comparison with RAL scale of colours; settings: 60° C. and 70° C., alone and in mixture with MCC, lactose or DiCaPhos, dry and 100% rh
Experimental: Discolouration was measured using optical comparison with a standard: the RAL scale of colours (see list). The colour changes during the experiment were compared to this standard list and the appropriate value was noted. The intensity was increasing on a scale ranging from 1 to 10.
A higher number means more discolouration. The increase in colour intensity is not proportional but qualitative.
The colouration of flupirtine maleate and flupirtine mesilate has been observed at 60° C. and at 70° C. with the substance alone and in mixture with micro crystalline cellulose (MCC), with lactose or with dicalcium phosphate DiCaPhos (CaHPO4). The tests were performed under dry and neat conditions. Neat refers to saturated with moisture, i.e., 100% relative humidity (rh). […] Only with lactose moisture had to be avoided for the mesilate.

## CCOC(=O)Nc1ccc(NCc2ccc(F)cc2)nc1N.Cc1ccc(S(=O)(=O)O)cc1 [Flupirtine tosilate, 2-amino-3-carbethoxyamino-6-(4-fluoro-benzylamino)-pyridine Tosilate]
[1]
  Bulk density: 420 ml/100 g substance

## CCOC(=O)Nc1ccc(NCc2ccc(F)cc2)nc1N.O=C(O)/C=C\C(=O)O [Flupirtine maleate A, reference compound]
[2]
  decrease of area under the peak of the flupirtine signal: 3.11%
  Flupirtine signal after 14 days (area under the peak in, %): 96.18%
  Flupirtine signal after 0 days (area under the peak in, %): 99.27%
[3]
  Solubility: 1.6 mg/100 ml water
[1]; listed as Maleate Form A
  Bulk density: 686 ml/100 g substance

## CCOC(=O)Nc1ccc(NCc2ccc(F)cc2)nc1N.CS(=O)(=O)O [Flupirtine mesilate, 2-amino-3-carbethoxyamino-6-(4-fluoro-benzylamino)-pyridine Mesilate]
[4]
  stability towards oxidation and towards discolouration: substantially improved stability
[2]
  Flupirtine signal after 14 days (area under the peak in, %): 96.81%
  Flupirtine signal after 0 days (area under the peak in, %): 97.69%
[3]
  solubility thermodynamic at 60 min: 52 µg/mL
[5]
  discolouration compared to maleate: equal or less discolouration
[1]
  Bulk density: 478 ml/100 g substance

## CCOC(=O)Nc1ccc(NCc2ccc(F)cc2)nc1N.O=S(=O)(O)c1ccccc1 [Flupirtine besilate, 2-amino-3-carbethoxyamino-6-(4-fluoro-benzylamino)-pyridine Besilate]
[4]
  stability towards oxidation and towards discolouration: substantially improved stability
[2]
  decrease of area under the peak of the flupirtine signal: less than 0.1%
  Flupirtine signal after 14 days (area under the peak in, %): 96.87%
  Flupirtine signal after 0 days (area under the peak in, %): 96.93%
[3]
  solubility thermodynamic at 60 min: 32 µg/mL
[1]
  Bulk density: 358 ml/100 g substance

## CCOC(=O)Nc1ccc(NCc2ccc(F)cc2)nc1N.O=C(O)/C=C\C(=O)O [Maleate Form B, reference compound]
[1]
  Bulk density: 1634 ml/100 g substance
